Legend:
Adenosine A2 receptor = Adenosine A2 receptor (Rattus norvegicus, UniProt P29276+P30543)
[1] = Ratio of A1-receptor binding to that of A2-receptor binding
Adenosine receptor A1 = target: T1, Adenosine receptor A1 (Rattus norvegicus, UniProt P25099); experiment: Adenosine A1 receptor binding was measured in adenosine deaminase (ADA) pretreated rat cortical membranes using [3H]cyclohexyladenosine in the presence of 2-chloroadenosine
T1 sequence (P25099 whole entry): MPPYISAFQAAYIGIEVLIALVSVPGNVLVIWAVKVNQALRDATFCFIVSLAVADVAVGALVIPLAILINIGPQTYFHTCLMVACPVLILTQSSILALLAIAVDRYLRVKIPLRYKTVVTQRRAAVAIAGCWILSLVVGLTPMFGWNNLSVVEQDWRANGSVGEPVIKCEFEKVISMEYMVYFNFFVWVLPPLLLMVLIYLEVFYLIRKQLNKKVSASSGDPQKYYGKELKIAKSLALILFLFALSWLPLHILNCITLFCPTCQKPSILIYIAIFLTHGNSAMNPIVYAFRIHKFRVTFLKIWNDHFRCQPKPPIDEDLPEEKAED

Rattus norvegicus [2] = species on record: Rattus norvegicus; experiment: Effective concentration required for 25% decrease in heart rate in perfused working heart model was determined
Rattus norvegicus [3] = species on record: Rattus norvegicus; experiment: Effective concentration required for 25% increase in coronary flow(CF) in perfused working heart model was determined; type: functional

| SMILES | Ki (Adenosine A2 receptor) | Ratio [1] | Ki (Adenosine receptor A1) | EC25 (Rattus norvegicus [2]) | EC25 (Rattus norvegicus [3]) |
| --- | --- | --- | --- | --- | --- |
| CCNC(=O)[C@H]1O[C@@H](n2cnc3c(N)ncnc32)[C@H](O)[C@@H]1O [NECA] | – | – | – | 60 nM | 5 nM |
| CCNC(=O)[C@H]1O[C@@H](n2cnc3c(N)nc(NCCc4ccc(CCC(=O)O)cc4)nc32)[C@H](O)[C@@H]1O [CGS-21680] | – | – | – | > 3000 nM | 2 nM |
| CCNC(=O)[C@H]1O[C@@H](n2cnc3c(N)nc(N(C)CCc4ccccc4)nc32)[C@H](O)[C@@H]1O | 71 nM | 170 | 12100 nM | – | – |
| CCNC(=O)[C@H]1O[C@@H](n2cnc3c(N)nc(NCCc4ccc(CCC(=O)OC)cc4)nc32)[C@H](O)[C@@H]1O | 9 nM | 140 | 1260 nM | – | – |
| Nc1nc(NCCc2ccccc2)nc2c1ncn2[C@@H]1O[C@H](C(=O)NC2CC2)[C@@H](O)[C@H]1O | 14 nM | 36 | 502 nM | – | – |
| CCNC(=O)[C@H]1O[C@@H](n2cnc3c(N)nc(NCCc4ccc(CC(=O)O)cc4)nc32)[C@H](O)[C@@H]1O | 45 nM | 109 | 4880 nM | – | – |
| CCNC(=O)[C@H]1O[C@@H](n2cnc3c(N)nc(NCCc4ccc(OCC(=O)O)cc4)nc32)[C@H](O)[C@@H]1O | 42 nM | 101 | 4250 nM | – | – |
| CCNC(=O)[C@H]1OC(n2cnc3c(N)nc(NCCc4ccc(Cl)cc4)nc32)[C@H](O)[C@@H]1O (stereo partly specified) | 7.5 nM | 201 | 1510 nM | – | – |
| Nc1nc(Nc2ccccc2)nc2c1ncn2[C@@H]1O[C@H](CO)[C@@H](O)[C@H]1O | 71 nM | – | – | > 3000 nM | 110 nM |
| CC(=O)O[C@]1(C(C)=O)CC[C@H]2[C@@H]3C=C(Cl)C4=CC(=O)[C@@H]5C[C@@H]5[C@]4(C)[C@H]3CC[C@@]21C [CYPROTERONE ACETATE] | 636 nM | 0.002 | 1.3 nM | – | – |

Further lines, with some results ahead:

| Ki (Adenosine A2 receptor) | Ratio [1] | Ki (Adenosine receptor A1) | SMILES | EC25 (Rattus norvegicus [2]) | EC25 (Rattus norvegicus [3]) |
| --- | --- | --- | --- | --- | --- |
| 77 nM | 69 | 5350 nM | CNC(=O)[C@H]1O[C@@H](n2cnc3c(N)nc(NCCc4ccccc4)nc32)[C@H](O)[C@@H]1O | – | – |
| – | – | 473 nM | CCNC(=O)[C@H]1O[C@@H](n2cnc3c(N)nc(NCCc4ccccc4)nc32)[C@H](O)[C@@H]1O | > 3000 nM | 3 nM |
| 1130 nM | 7.6 | 8600 nM | CCNC(=O)[C@H]1O[C@@H](n2cnc3c(N)nc(NCc4ccccc4)nc32)[C@H](O)[C@@H]1O | – | – |
| – | – | 101 nM | CNC(=O)[C@H]1O[C@@H](n2cnc3c(N)ncnc32)[C@H](O)[C@@H]1O | – | – |
| 7.7 nM | 154 | 1180 nM | CCNC(=O)[C@H]1O[C@@H](n2cnc3c(N)nc(NCCc4ccc(F)cc4)nc32)[C@H](O)[C@@H]1O | – | – |
